Active and inactive are the calls of the source.
What was measured:
Type in all cases: functional, organism-based
Niallia circulans [1] = test: Antibacterial activity against Bacillus circulans NRRLNRS-1108 assessed as inhibition of bacterial growth incubated for overnight by disk diffusion method
Bacillus subtilis [2] = test: Antibacterial activity against Bacillus subtilis NCIB3610 assessed as inhibition of bacterial growth incubated for overnight by disk diffusion method
Escherichia coli [3] = test: Antibacterial activity against Escherichia coli ATCC 25922 assessed as inhibition of bacterial growth incubated for overnight by disk diffusion method
Enterococcus faecalis = test: Antibacterial activity against Enterococcus faecalis DSM2570 assessed as inhibition of bacterial growth incubated for overnight by disk diffusion method
Pseudomonas aeruginosa = test: Antibacterial activity against Pseudomonas aeruginosa ATCC 27853 assessed as inhibition of bacterial growth incubated for overnight by disk diffusion method
Staphylococcus delphini = test: Antibacterial activity against Staphylococcus delphini DSM20771 assessed as inhibition of bacterial growth incubated for overnight by disk diffusion method
Niallia circulans [4] = test: Antibacterial activity against Bacillus circulans NRRLB-380 assessed as inhibition of bacterial growth incubated for overnight by disk diffusion method
Klebsiella pneumoniae = test: Antibacterial activity against Klebsiella pneumoniae DSM26371 assessed as inhibition of bacterial growth incubated for overnight by disk diffusion method
Niallia circulans [5] = test: Antibacterial activity against Bacillus circulans NRRLB-14032 assessed as inhibition of bacterial growth incubated for overnight by disk diffusion method
Bacillus subtilis [6] = test: Antibacterial activity against Bacillus subtilis BSB01 assessed as inhibition of bacterial growth incubated for overnight by disk diffusion method
Escherichia coli [7] = test: Antibacterial activity against Escherichia coli DH5alpha assessed as inhibition of bacterial growth incubated for overnight by disk diffusion method
Staphylococcus aureus = test: Antibacterial activity against Staphylococcus aureus ATCC 29213 assessed as inhibition of bacterial growth incubated for overnight by disk diffusion method

Measured: Activity

Nc1nc2[nH]c(-c3[nH]c4ccccc4c3C[C@@H]3NC(=O)/C(=C/c4ccccc4)NC3=O)nc2c(=O)[nH]1
inactive: Niallia circulans [1] | Bacillus subtilis [2] | Escherichia coli [3] | Enterococcus faecalis | Pseudomonas aeruginosa | Staphylococcus delphini | Niallia circulans [4] | Klebsiella pneumoniae | Niallia circulans [5] | Bacillus subtilis [6] | Escherichia coli [7] | Staphylococcus aureus

Nc1nc2[nH]c(-c3[nH]c4ccccc4c3C[C@@H]3NC(=O)/C(=C/c4ccc(O)cc4)NC3=O)nc2c(=O)[nH]1
inactive: Niallia circulans [1] | Bacillus subtilis [2] | Escherichia coli [3] | Enterococcus faecalis | Pseudomonas aeruginosa | Staphylococcus delphini | Niallia circulans [4] | Klebsiella pneumoniae | Niallia circulans [5] | Bacillus subtilis [6] | Escherichia coli [7] | Staphylococcus aureus

Nc1nc2[nH]c(-c3[nH]c4ccccc4c3C[C@@H]3NC(=O)[C@H](Cc4ccc(O)cc4)NC3=O)nc2c(=O)[nH]1
inactive: Niallia circulans [1] | Bacillus subtilis [2] | Escherichia coli [3] | Enterococcus faecalis | Pseudomonas aeruginosa | Staphylococcus delphini | Niallia circulans [4] | Klebsiella pneumoniae | Niallia circulans [5] | Bacillus subtilis [6] | Escherichia coli [7] | Staphylococcus aureus

Nc1nc2[nH]c(-c3[nH]c4ccccc4c3C[C@@H]3NC(=O)[C@H](Cc4c[nH]c5ccccc45)NC3=O)nc2c(=O)[nH]1
inactive: Niallia circulans [1] | Bacillus subtilis [2] | Escherichia coli [3] | Enterococcus faecalis | Pseudomonas aeruginosa | Staphylococcus delphini | Niallia circulans [4] | Klebsiella pneumoniae | Niallia circulans [5] | Bacillus subtilis [6] | Escherichia coli [7] | Staphylococcus aureus

Nc1nc2[nH]c(-c3[nH]c4ccccc4c3C[C@@H]3NC(=O)[C@H](Cc4ccccc4)NC3=O)nc2c(=O)[nH]1
inactive: Niallia circulans [1] | Bacillus subtilis [2] | Escherichia coli [3] | Enterococcus faecalis | Pseudomonas aeruginosa | Staphylococcus delphini | Niallia circulans [4] | Klebsiella pneumoniae | Niallia circulans [5] | Bacillus subtilis [6] | Escherichia coli [7] | Staphylococcus aureus

From ChEMBL document CHEMBL5226376, “A Streptomyces Cytochrome P450 Enzyme Catalyzes Regiospecific C2-Guaninylation for the Synthesis of Diverse Guanitrypmycin Analogs” (J Nat Prod, 2023)
